Key:
A549 cells [1] = assay: Cell cycle analysis by flow cytometry; type: cell-based, human; details: 25 and 50 μM, 48 h
Method: For flow cytometric analysis of the cell cycle distribution, floating and adherent cells were harvested together 48 h after treatment with the compounds (25 and 50 µM), washed in cold PBS, fixed in cold 70% ethanol, and stored overnight at −20 °C. Prior to analysis, the cells were washed twice in PBS, resuspended in a staining solution (0.1% Triton X-100, 0.137 g L^−1 ribonuclease A and 0.02 g L^−1 propidium iodide (PI) and incubated in dark conditions at RT for 30 min. The DNA content was analysed using a BD FACSCalibur flow cytometer (Becton Dickinson, San Jose, CA, USA) with a 488 nm argon-ion excitation laser, and fluorescence was detected using a 585/42 nm band-pass filter (FL-2). ModFit 3.0 software (Verity Software House, Topsham, ME, USA) was used to generate DNA content frequency histograms and to quantify the percentage of cells in the individual cell cycle phases. The results are presented as the average ratio of cells in the individual phase to all cells from three independent experiments.

[2] = target: T1, human serum albumin (HSA) (Homo sapiens, UniProt P02768); assay: Three-dimensional fluorescence spectra of HSA; type: binding; details: HSA:compound 1:1, 4 μM, 25 °C
T1 construct: purchased Sigma (St. Louis, MO, USA)
T1 sequence (P02768 25-609): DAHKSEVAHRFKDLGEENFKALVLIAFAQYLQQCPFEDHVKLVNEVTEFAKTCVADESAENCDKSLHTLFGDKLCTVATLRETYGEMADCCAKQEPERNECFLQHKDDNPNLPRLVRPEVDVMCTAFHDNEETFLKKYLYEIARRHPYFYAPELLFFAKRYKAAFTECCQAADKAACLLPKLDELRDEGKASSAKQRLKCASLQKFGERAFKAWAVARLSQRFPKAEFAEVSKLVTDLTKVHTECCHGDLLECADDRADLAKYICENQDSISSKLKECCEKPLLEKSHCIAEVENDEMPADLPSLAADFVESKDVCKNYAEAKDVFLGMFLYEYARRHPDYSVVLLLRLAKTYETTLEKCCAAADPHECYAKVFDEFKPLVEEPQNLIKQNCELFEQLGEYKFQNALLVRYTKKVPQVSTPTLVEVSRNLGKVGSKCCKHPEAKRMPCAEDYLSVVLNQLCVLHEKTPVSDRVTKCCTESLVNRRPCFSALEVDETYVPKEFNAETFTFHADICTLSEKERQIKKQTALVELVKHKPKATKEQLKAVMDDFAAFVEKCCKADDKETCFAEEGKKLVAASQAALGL
From the text: A useful method for studying drug-HSA interactions is three-dimensional fluorescence spectroscopy, which can offer information about the structural changes to the polypeptide backbone structure and the microenvironment polarity around the Trp and Tyr residues. Peak a (λex = λem) is […], while peak b (2λex = λem) is […]. The change at peak 1 (280/339 nm) reflects a change in the polarity of the microenvironment around the Trp and Tyr residues, and peak 2 (230/336 nm) characterizes the polypeptide backbone structure. […] The fluorescence intensities of both peaks decreased after the addition of derivatives 3a–3d, with a more pronounced decrease observed in the fluorescence intensity of peak 2. […] The changes observed in the 3D spectra correlate with the results of earlier quenching fluorescence experiments. […]
The 3DF spectra of HSA were performed in the absence and presence of compounds 3a–3d using an excitation wavelength range of 200–350 nm and an emission wavelength range of 200–600 nm at room temperature (25 °C). The 3D spectra were recorded for 4 μM of HSA in a 2 mL buffer solution (100 mM NaCl and 10 mM Tris-HCl buffer pH = 7.4) and for the HSA:3a–3d complexes at a concentration ratio 1:1. […]

A549 cells [3] = assay: Colony forming (clonogenic) assay; type: cell-based, human; details: 48 h treatment, 7 days cultivation; for effect on ability of A549 cells to form new colonies: 25 μM; for reduction of clonogenic ability of A549 cells vs control: 50 μM
Method: To assess drug efficacy and prevent treatment failure, it is important to observe whether cancer cells may proliferate during the interval between treatments. The clonogenic assay evaluates the efficacy of new drugs by observation of reduced repopulation of cancer cells and cell survival after treatment. This assay is important to select eligible anticancer drug candidates. The clonogenic survival was analysed after treatment of A549 cells with the compounds 3a and 3c. DMSO (0.5%) was used as solvent control. A549 cells were treated with 3a and 3c in concentrations of 25 and 50 μM for 48 h. The cells were then counted, and 500 viable cells per well were seeded and cultivated for another seven days under standard conditions.
For the colony forming assay, floating and adherent cells were harvested together 48 h after treatment with the studied compounds (25 and 50 µM). The cells were then counted using a Bürker chamber with eosin staining and 500 viable cells per well were seeded in 6-well plates. After seven days of cultivation under standard conditions, the cells in the plates were fixed and stained with 1% methylene blue dye in methanol. Visualized colonies were scanned and counted by Image software, and the results were evaluated as percentages of the untreated control. The results are presented as the average percentage of colonies from three independent experiments.

blue shift of peak 1 (280/339 nm) [2]	blue shift of peak 2 (230/336 nm) [2]	SMILES	effect on cell cycle distribution (A549 cells [1])	effect on ability of A549 cells to form new colonies (A549 cells [3])	reduction of clonogenic ability of A549 cells vs control (A549 cells [3])
8 nm	10 nm	O=C(N/N=C/c1cccc2cc3ccccc3nc12)c1ccccc1 [3a, N′-[(E)-(Acridin-4-yl)methylidene]benzohydrazide]	accumulation of cells in the G2/M phase	did not significantly reduce	72%
–	–	O=C(N/N=C/c1cccc2cc3ccccc3nc12)c1ccc(Cl)cc1 [3c, N′-[(E)-Acridin-4-ylmethylidene]-4-chlorobenzohydrazide]	accumulation of cells in the G2/M phase	did not significantly reduce	74%
